According to PubChem BioAssay AID1963963 (Molecular Pharmacology Branch, DTP, NCI, 2024):
Values belong to the compound of their own block, whether it stands above or below them.

System: 958667-338-R-J2-PDC tumor spheroids viability
Experiment: Anticancer human tumor 958667-338-R-J2-PDC patient-derived colon adenocarcinoma cell line growth inhibition [PI3K]
Details: spheroids with HUVEC and MSC; for viability, T/C: stronger effect = lower value
Outline: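 Viability of mixed-cell spheroids was determined after exposure to pairwise combinations, one partner being inavolisib, alpelisib, duvelisib or copanlisib. Highest tested concentration matched clinical Cmax where known and 10 microM where not, descending in half-log steps.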

[1] = curve of first compound, second compound 0.00316 µM
[2] = curve of first compound, second compound 0.01 µM
[3] = curve of first compound, second compound 0.0316 µM
[4] = curve of first compound, second compound 0.1 µM
[5] = curve of first compound, second compound 0.316 µM
[6] = curve of first compound, second compound 1 µM
[7] = second compound 0.00316 µM, first compound 0.0316 µM
[8] = second compound 0.00316 µM, first compound 0.1 µM
[9] = second compound 0.00316 µM, first compound 0.316 µM
[10] = second compound 0.00316 µM, first compound 1 µM
[11] = second compound 0.00316 µM, first compound 3.16 µM
[12] = second compound 0.00316 µM, first compound 10 µM
[13] = second compound 0.01 µM, first compound 0.0316 µM
[14] = second compound 0.01 µM, first compound 0.1 µM
[15] = second compound 0.01 µM, first compound 0.316 µM
[16] = second compound 0.01 µM, first compound 1 µM
[17] = second compound 0.01 µM, first compound 3.16 µM
[18] = second compound 0.01 µM, first compound 10 µM
[19] = second compound 0.0316 µM, first compound 0.0316 µM
[20] = second compound 0.0316 µM, first compound 0.1 µM
[21] = second compound 0.0316 µM, first compound 0.316 µM
[22] = second compound 0.0316 µM, first compound 1 µM
[23] = second compound 0.0316 µM, first compound 3.16 µM
[24] = second compound 0.0316 µM, first compound 10 µM
[25] = second compound 0.1 µM, first compound 0.0316 µM
[26] = second compound 0.1 µM, first compound 0.1 µM
[27] = second compound 0.1 µM, first compound 0.316 µM
[28] = second compound 0.1 µM, first compound 1 µM
[29] = second compound 0.1 µM, first compound 3.16 µM
[30] = second compound 0.1 µM, first compound 10 µM
[31] = second compound 0.316 µM, first compound 0.0316 µM
[32] = second compound 0.316 µM, first compound 0.1 µM
[33] = second compound 0.316 µM, first compound 0.316 µM
[34] = second compound 0.316 µM, first compound 1 µM
[35] = second compound 0.316 µM, first compound 3.16 µM
[36] = second compound 0.316 µM, first compound 10 µM
[37] = second compound 1 µM, first compound 0.0316 µM
[38] = second compound 1 µM, first compound 0.1 µM
[39] = second compound 1 µM, first compound 0.316 µM
[40] = second compound 1 µM, first compound 1 µM
[41] = second compound 1 µM, first compound 3.16 µM
[42] = second compound 1 µM, first compound 10 µM
[43] = curve of first compound, second compound 3.16 µM
[44] = curve of first compound, second compound 10 µM
[45] = second compound 3.16 µM, first compound 0.0316 µM
[46] = second compound 3.16 µM, first compound 0.1 µM
[47] = second compound 3.16 µM, first compound 0.316 µM
[48] = second compound 3.16 µM, first compound 1 µM
[49] = second compound 3.16 µM, first compound 3.16 µM
[50] = second compound 3.16 µM, first compound 10 µM
[51] = second compound 10 µM, first compound 0.0316 µM
[52] = second compound 10 µM, first compound 0.1 µM
[53] = second compound 10 µM, first compound 0.316 µM
[54] = second compound 10 µM, first compound 1 µM
[55] = second compound 10 µM, first compound 3.16 µM
[56] = second compound 10 µM, first compound 10 µM
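Further: spheroids exposed to compounds for seven days before readout.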

SMILES: Cn1cnc2c(F)c(Nc3ccc(Br)cc3Cl)c(C(=O)NOCCO)cc21
- viability, T/C (compound 0.00949 µM): 96.5% [middle of 4 runs]
- viability, T/C (compound 0.0949 µM): 85.5% [middle of 4 runs]
- viability, T/C (compound 0.3 µM): 54.2% [middle of 4 runs]
- viability, T/C (compound 0.949 µM): 35.9% [middle of 4 runs]
- viability, T/C (compound 3 µM): 20.5% [middle of 4 runs]
- IC50 (curve of compound): 377 nM [middle of 4 runs]

SMILES: CC1(C)CCC(CN2CCN(c3ccc(C(=O)NS(=O)(=O)c4ccc(NCC5CCOCC5)c([N+](=O)[O-])c4)c(Oc4cnc5[nH]ccc5c4)c3)CC2)=C(c2ccc(Cl)cc2)C1 + CC(Nc1ncnc2nc[nH]c12)c1cc2cccc(Cl)c2c(=O)n1-c1ccccc1
- IC50 [3]: > 10 µM
- IC50 [4]: > 10 µM
- IC50 [5]: > 10 µM
- IC50 [6]: > 10 µM
- IC50 [43]: > 10 µM
- IC50 [44]: > 10 µM
- viability, T/C [19]: 107%
- viability, T/C [20]: 93.6%
- viability, T/C [21]: 101%
- viability, T/C [22]: 93%
- viability, T/C [23]: 119%
- viability, T/C [24]: 69.9%
- viability, T/C [25]: 96.3%
- viability, T/C [26]: 102%
- viability, T/C [27]: 90.6%
- viability, T/C [28]: 94.6%
- viability, T/C [29]: 107%
- viability, T/C [30]: 51.2%
- viability, T/C [31]: 101%
- viability, T/C [32]: 106%
- viability, T/C [33]: 104%
- viability, T/C [34]: 116%
- viability, T/C [35]: 105%
- viability, T/C [36]: 80.3%
- viability, T/C [37]: 90.1%
- viability, T/C [38]: 96.2%
- viability, T/C [39]: 100%
- viability, T/C [40]: 100%
- viability, T/C [41]: 101%
- viability, T/C [42]: 76.8%
- viability, T/C [45]: 93.4%
- viability, T/C [46]: 108%
- viability, T/C [47]: 94.4%
- viability, T/C [48]: 93.1%
- viability, T/C [49]: 99.9%
- viability, T/C [50]: 54.5%
- viability, T/C [51]: 93.2%
- viability, T/C [52]: 84.3%
- viability, T/C [53]: 101%
- viability, T/C [54]: 88%
- viability, T/C [55]: 97.7%
- viability, T/C [56]: 68.2%

SMILES: C=CC(=O)N1CCN(c2nc(=O)n(-c3c(C)ccnc3C(C)C)c3nc(-c4c(O)cccc4F)c(F)cc23)C(C)C1 (centres undefined) + CC(Nc1ncnc2nc[nH]c12)c1cc2cccc(Cl)c2c(=O)n1-c1ccccc1
- IC50 [3]: > 10 µM
- IC50 [4]: > 10 µM
- IC50 [5]: > 10 µM
- IC50 [6]: > 10 µM
- IC50 [43]: > 10 µM
- IC50 [44]: > 10 µM
- viability, T/C [19]: 118%
- viability, T/C [20]: 117%
- viability, T/C [21]: 104%
- viability, T/C [22]: 109%
- viability, T/C [23]: 130%
- viability, T/C [24]: 127%
- viability, T/C [25]: 106%
- viability, T/C [26]: 118%
- viability, T/C [27]: 112%
- viability, T/C [28]: 104%
- viability, T/C [29]: 118%
- viability, T/C [30]: 98%
- viability, T/C [31]: 116%
- viability, T/C [32]: 90.8%
- viability, T/C [33]: 93.6%
- viability, T/C [34]: 149%
- viability, T/C [35]: 116%
- viability, T/C [36]: 96.8%
- viability, T/C [37]: 108%
- viability, T/C [38]: 106%
- viability, T/C [39]: 85.9%
- viability, T/C [40]: 96.5%
- viability, T/C [41]: 123%
- viability, T/C [42]: 120%
- viability, T/C [45]: 89.8%
- viability, T/C [46]: 88.1%
- viability, T/C [47]: 99.9%
- viability, T/C [48]: 125%
- viability, T/C [49]: 112%
- viability, T/C [50]: 111%
- viability, T/C [51]: 93.3%
- viability, T/C [52]: 90.3%
- viability, T/C [53]: 115%
- viability, T/C [54]: 104%
- viability, T/C [55]: 101%
- viability, T/C [56]: 105%

More lines, main results first:

- IC50 [1]: > 10 µM
- IC50 [2]: > 10 µM
- IC50 [3]: > 10 µM
- IC50 [4]: > 10 µM
- IC50 [5]: > 10 µM
- IC50 [6]: > 10 µM
SMILES: C=CC(=O)N1CCN(c2nc(=O)n(-c3c(C)ccnc3C(C)C)c3nc(-c4c(O)cccc4F)c(F)cc23)C(C)C1 (centres undefined) + CC(Nc1ccc2c(c1)OCCn1cc(N3C(=O)OCC3C(F)F)nc1-2)C(N)=O
- viability, T/C [7]: 85.9%
- viability, T/C [8]: 112%
- viability, T/C [9]: 82.4%
- viability, T/C [10]: 112%
- viability, T/C [11]: 101%
- viability, T/C [12]: 111%
- viability, T/C [13]: 88.2%
- viability, T/C [14]: 100%
- viability, T/C [15]: 101%
- viability, T/C [16]: 102%
- viability, T/C [17]: 115%
- viability, T/C [18]: 94.5%
- viability, T/C [19]: 87.3%
- viability, T/C [20]: 96.4%
- viability, T/C [21]: 88%
- viability, T/C [22]: 87.3%
- viability, T/C [23]: 89.7%
- viability, T/C [24]: 98.3%
- viability, T/C [25]: 80.5%
- viability, T/C [26]: 88.8%
- viability, T/C [27]: 101%
- viability, T/C [28]: 86.3%
- viability, T/C [29]: 96.7%
- viability, T/C [30]: 99.3%
- viability, T/C [31]: 58.2%
- viability, T/C [32]: 62.7%
- viability, T/C [33]: 65.2%
- viability, T/C [34]: 75.2%
- viability, T/C [35]: 72.4%
- viability, T/C [36]: 70.7%
- viability, T/C [37]: 57.2%
- viability, T/C [38]: 55.2%
- viability, T/C [39]: 75.1%
- viability, T/C [40]: 62.2%
- viability, T/C [41]: 61.3%
- viability, T/C [42]: 60.4%

- IC50 [1]: 3.33 µM
- IC50 [2]: 1.98 µM
- IC50 [3]: 3.72 µM
- IC50 [4]: 1.4 µM
- IC50 [5]: < 0.0316 µM
- IC50 [6]: < 0.0316 µM
SMILES: CC1(C)CCC(Nc2ncc(C(F)(F)F)c(-c3c[nH]c4c(P(C)(C)=O)c(C#N)ccc34)n2)CN1 (centres undefined) + COc1c(OCCCN2CCOCC2)ccc2c3n(c(=NC(=O)c4cnc(N)nc4)nc12)CCN3
- viability, T/C [7]: 90%
- viability, T/C [8]: 94.7%
- viability, T/C [9]: 71.1%
- viability, T/C [10]: 55.7%
- viability, T/C [11]: 66.4%
- viability, T/C [12]: 22.9%
- viability, T/C [13]: 105%
- viability, T/C [14]: 85.8%
- viability, T/C [15]: 68.2%
- viability, T/C [16]: 59.8%
- viability, T/C [17]: 58.7%
- viability, T/C [18]: 19.4%
- viability, T/C [19]: 72.5%
- viability, T/C [20]: 71.5%
- viability, T/C [21]: 65.9%
- viability, T/C [22]: 55%
- viability, T/C [23]: 60.4%
- viability, T/C [24]: 20.9%
- viability, T/C [25]: 69%
- viability, T/C [26]: 71.9%
- viability, T/C [27]: 48.2%
- viability, T/C [28]: 53.7%
- viability, T/C [29]: 44.8%
- viability, T/C [30]: 4.88%
- viability, T/C [31]: 46.3%
- viability, T/C [32]: 42.9%
- viability, T/C [33]: 36.8%
- viability, T/C [34]: 39.5%
- viability, T/C [35]: 25.6%
- viability, T/C [36]: 1.02%
- viability, T/C [37]: 19.9%
- viability, T/C [38]: 16.8%
- viability, T/C [39]: 14.9%
- viability, T/C [40]: 15.8%
- viability, T/C [41]: 10.2%
- viability, T/C [42]: 1.04%
